The text below walks through data of patent publication US9000022B2 (Exelixis Patent Company LLC, priority 2005, dated 2015).

For the test, the system named is LXRα and/or LXRβ. Description: Co-transfection assay (LXRE luciferase reporter, CV-1 cells). The settings on record: tested as described in Example 33; IC50 or EC50 for LXRα and/or LXRβ, isoform not specified; read-out: activity (IC50 or EC50 for LXR). Type of test: cell-based, human. An outline of the steps:
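Luciferase signal measures LXR-RXR transcriptional activation in transiently transfected CV-1 cells carrying human LXRα or LXRβ, RXRα and a single-copy LXRE reporter. Cells were exposed to compound for 20 h at 37 °C with at most 1% DMSO, using 10 μM final for screening. Potency was derived from 4-parameter fits of 8-point, half-log dose curves averaged over ≥3 runs, and efficacy was expressed as % of a reference agonist.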

Turning to `CC(C)(O)c1cn(-c2ccc(-c3ccc(C(C)(C)O)c(S(C)(=O)=O)c3)cc2Cl)c(-c2ccccc2C(F)(F)F)n1` [Example 163, 2-(1-(3-chloro-4′-(2-hydroxypropan-2-yl)-3′-(methylsulfonyl)biphenyl-4-yl)-2-(2-(trifluoromethyl)phenyl)-1H-imidazol-4-yl)propan-2-ol], the IC50 or EC50 (potency, activation or inhibition) is under 1 µM. Next, `CC(C)(O)c1cn(-c2ccc(-c3ccc(C(C)(C)O)c(S(C)(=O)=O)c3)cc2Cl)c(-c2c(F)cccc2Cl)n1` [Example 164, 2-(3′-chloro-4′-(2-(2-chloro-6-fluorophenyl)-4-(2-hydroxypropan-2-yl)-1H-imidazol-1-yl)-3-(methyl-sulfonyl)biphenyl-4-yl)propan-2-ol]: 1 to 10 µM. Consider `CCOC(=O)c1ccc(-c2ccc(-n3cc(C(C)(C)O)nc3-c3c(F)cccc3Cl)c(Cl)c2)cc1S(C)(=O)=O` [Example 165, ethyl 3′-chloro-4′-(2-(2-chloro-6-fluorophenyl)-4-(2-hydroxypropan-2-yl)-1H-imidazol-1-yl)-3-(methyl-sulfonyl)biphenyl-4-carboxylate], for which the IC50 or EC50 (potency, activation or inhibition) is 1 to 10 µM. With `Cc1cc(-c2cccc(S(C)(=O)=O)c2)cc(Cl)c1-n1cc(C(C)(C)O)nc1-c1ccccc1Cl` [Example 168, 2-(1-(3-chloro-5-methyl-3′-(methyl-sulfonyl)biphenyl-4-yl)-2-(2-chlorophenyl)-1H-imidazol-4-yl)propan-2-ol] the figure was 1 to 10 µM; with `CCS(=O)(=O)c1cccc(-c2cc(C)c(-n3cc(C(C)(C)O)nc3-c3ccccc3Cl)c(Cl)c2)c1` [Example 169, 2-(1-(3-chloro-3′-(ethylsulfonyl)-5-methylbiphenyl-4-yl)-2-(2-chlorophenyl)-1H-imidazol-4-yl)propan-2-ol], under 1 µM; with `CCc1cc(-c2cccc(S(C)(=O)=O)c2)ccc1-n1cc(C(C)(C)O)nc1-c1ccccc1Cl` [Example 170, 2-(2-(2-chlorophenyl)-1-(3-ethyl-3′-(methylsulfonyl)biphenyl-4-yl)-1H-imidazol-4-yl)propan-2-ol], under 1 µM.

Turning to `Cc1cc(-c2ccc(CO)c(S(C)(=O)=O)c2)ccc1-n1cc(C(C)(C)O)nc1-c1ccccc1C(F)(F)F` [Example 171], the IC50 or EC50 (potency, activation or inhibition) was under 1 µM. With `Cc1cc(-c2ccc(CO)c(S(C)(=O)=O)c2)ccc1-n1cc(C(C)(C)O)nc1-c1c(F)cccc1Cl` [Example 172, 2-(2-(2-chloro-6-fluorophenyl)-1-(4′-(hydroxymethyl)-3-methyl-3′-(methylsulfonyl)biphenyl-4-yl)-1H-imidazol-4-yl)propan-2-ol] the figure was under 1 µM. Regarding `Cc1cc(-c2ccc(CO)c(S(C)(=O)=O)c2)ccc1-n1cc(C(C)(C)O)nc1-c1cccc(F)c1Cl` [Example 173, 2-(2-(2-chloro-3-fluorophenyl)-1-(4′-(hydroxymethyl)-3-methyl-3′-(methylsulfonyl)biphenyl-4-yl)-1H-imidazol-4-yl)propan-2-ol], the IC50 or EC50 (potency, activation or inhibition) is under 1 µM.

With `Cc1cc(-c2ccc(CO)c(S(C)(=O)=O)c2)ccc1-n1cc(C(C)(C)O)nc1-c1c(Cl)cccc1Cl` [Example 174, 2-(2-(2,6-dichlorophenyl)-1-(4′-(hydroxymethyl)-3-methyl-3′-(methylsulfonyl)biphenyl-4-yl)-1H-imidazol-4-yl)propan-2-ol], the IC50 or EC50 (potency, activation or inhibition) is under 1 µM. Next, `Cc1cc(-c2ccc(CO)c(S(C)(=O)=O)c2)ccc1-n1cc(C(C)(C)O)nc1-c1cccc(Cl)c1C` [Example 175, 2-(2-(3-chloro-2-methylphenyl)-1-(4′-(hydroxymethyl)-3-methyl-3′-(methylsulfonyl)biphenyl-4-yl)-1H-imidazol-4-yl)propan-2-ol]: under 1 µM; `Cc1cc(-c2ccc(CO)c(S(C)(=O)=O)c2)ccc1-n1cc(C(C)(C)O)nc1-c1cccc(Cl)c1Cl` [Example 176, 2-(2-(2,3-dichlorophenyl)-1-(4′-(hydroxymethyl)-3-methyl-3′-(methylsulfonyl)biphenyl-4-yl)-1H-imidazol-4-yl)propan-2-ol]: under 1 µM; `Cc1cc(-c2ccc(CO)c(S(C)(=O)=O)c2)ccc1-n1cc(C(C)(C)O)nc1-c1c(C)cccc1Cl` [Example 177]: under 1 µM. With `Cc1cc(-c2ccc(CO)c(S(C)(=O)=O)c2)ccc1-n1cc(C(C)(C)O)nc1-c1c(F)cccc1F` [Example 178, 2-(2-(2,6-difluorophenyl)-1-(4′-(hydroxymethyl)-3-methyl-3′-(methylsulfonyl)biphenyl-4-yl)-1H-imidazol-4-yl)propan-2-ol] the figure was under 1 µM; with `Cc1cc(-c2cccc(S(C)(=O)=O)c2)ccc1-n1cc(C(C)(C)O)nc1-c1cccc(Cl)c1Cl` [Example 179, 2-(2-(2,3-dichlorophenyl)-1-(3-methyl-3′-(methylsulfonyl)biphenyl-4-yl)-1H-imidazol-4-yl)propan-2-ol], under 1 µM; with `CCS(=O)(=O)c1cccc(-c2ccc(-n3cc(C(C)(C)O)nc3-c3cccc(Cl)c3Cl)c(C)c2)c1` [Example 180, 2-(2-(2,3-dichlorophenyl)-1-(3′-(ethylsulfonyl)-3-methylbiphenyl-4-yl)-1H-imidazol-4-yl)propan-2-ol], under 1 µM. Next, `Cc1cc(-c2cccc(S(C)(=O)=O)c2)ccc1-n1cc(C(C)(C)O)nc1-c1c(Cl)cccc1Cl` [Example 181, 2-(2-(2,6-dichlorophenyl)-1-(3-methyl-3′-(methylsulfonyl)biphenyl-4-yl)-1H-imidazol-4-yl)propan-2-ol]: under 1 µM; `CCS(=O)(=O)c1cccc(-c2ccc(-n3cc(C(C)(C)O)nc3-c3c(Cl)cccc3Cl)c(C)c2)c1` [Example 182, 2-(2-(2,6-dichlorophenyl)-1-(3′-(ethylsulfonyl)-3-methylbiphenyl-4-yl)-1H-imidazol-4-yl)propan-2-ol]: under 1 µM; `Cc1cc(-c2cccc(S(C)(=O)=O)c2)ccc1-n1cc(C(C)(C)O)nc1-c1ccccc1C(F)(F)F` [Example 183, 2-(1-(3-methyl-3′-(methyl-sulfonyl)biphenyl-4-yl)-2-(2-(trifluoromethyl)phenyl)-1H-imidazol-4-yl)propan-2-ol]: under 1 µM. With `CCS(=O)(=O)c1cccc(-c2ccc(-n3cc(C(C)(C)O)nc3-c3ccccc3C(F)(F)F)c(C)c2)c1` [Example 184, 2-(1-(3′-(ethylsulfonyl)-3-methyl-biphenyl-4-yl)-2-(2-(trifluoro-methyl)phenyl)-1H-imidazol-4-yl)propan-2-ol], the IC50 or EC50 (potency, activation or inhibition) is under 1 µM. Next, `Cc1cc(-c2cccc(S(C)(=O)=O)c2)ccc1-n1cc(C(C)(C)O)nc1-c1cccc(F)c1Cl` [Example 185, 2-(2-(2-chloro-3-fluorophenyl)-1-(3-methyl-3′-(methylsulfonyl)biphenyl-4-yl)-1H-imidazol-4-yl)propan-2-ol]: under 1 µM. Next, `CCS(=O)(=O)c1cccc(-c2ccc(-n3cc(C(C)(C)O)nc3-c3cccc(F)c3Cl)c(C)c2)c1` [Example 186, 2-(2-(2-chloro-3-fluorophenyl)-1-(3′-(ethylsulfonyl)-3-methylbiphenyl-4-yl)-1H-imidazol-4-yl)propan-2-ol]: under 1 µM; `Cc1cc(-c2cccc(S(C)(=O)=O)c2)ccc1-n1cc(C(C)(C)O)nc1-c1c(F)cccc1Cl` [Example 187, 2-(2-(2-chloro-6-fluorophenyl)-1-(3-methyl-3′-(methylsulfonyl)biphenyl-4-yl)-1H-imidazol-4-yl)propan-2-ol]: under 1 µM; `CCS(=O)(=O)c1cccc(-c2ccc(-n3cc(C(C)(C)O)nc3-c3c(F)cccc3Cl)c(C)c2)c1` [Example 188, 2-(2-(2-chloro-6-fluorophenyl)-1-(3′-(ethylsulfonyl)-3-methylbiphenyl-4-yl)-1H-imidazol-4-yl)propan-2-ol]: under 1 µM.

Consider `Cc1cc(-c2cccc(S(C)(=O)=O)c2)ccc1-n1cc(C(C)(C)O)nc1-c1cccc(Cl)c1C` [Example 189, 2-(2-(3-chloro-2-methylphenyl)-1-(3-methyl-3′-(methylsulfonyl)biphenyl-4-yl)-1H-imidazol-4-yl)propan-2-ol], for which the IC50 or EC50 (potency, activation or inhibition) is under 1 µM. With `CCS(=O)(=O)c1cccc(-c2ccc(-n3cc(C(C)(C)O)nc3-c3cccc(Cl)c3C)c(C)c2)c1` [Example 190, 2-(2-(3-chloro-2-methylphenyl)-1-(3′-(ethylsulfonyl)-3-methylbiphenyl-4-yl)-1H-imidazol-4-yl)propan-2-ol], the IC50 or EC50 (potency, activation or inhibition) was under 1 µM. With `Cc1cc(-c2cccc(S(C)(=O)=O)c2)ccc1-n1cc(C(C)(C)O)nc1-c1c(C)cccc1Cl` [Example 191, 2-(2-(2-chloro-6-methylphenyl)-1-(3-methyl-3′-(methylsulfonyl)biphenyl-4-yl)-1H-imidazol-4-yl)propan-2-ol] the figure was under 1 µM. With `CCS(=O)(=O)c1cccc(-c2ccc(-n3cc(C(C)(C)O)nc3-c3c(C)cccc3Cl)c(C)c2)c1` [Example 192, 2-(2-(2-chloro-6-methylphenyl)-1-(3′-(ethylsulfonyl)-3-methylbiphenyl-4-yl)-1H-imidazol-4-yl)propan-2-ol] the figure was under 1 µM; with `Cc1cc(-c2cccc(S(C)(=O)=O)c2)ccc1-n1cc(C(C)(C)O)nc1-c1c(F)cccc1F` [Example 193, 2-(2-(2,6-difluorophenyl)-1-(3-methyl-3′-(methylsulfonyl)biphenyl-4-yl)-1H-imidazol-4-yl)propan-2-ol], under 1 µM.
